In patent US9181234B2, “Antibacterial compounds” (priority 2010, dated 2015):
Values after ≈ are worked out from the molar mass of the structure shown.

Key:
[1] = physchem; details: for solubility at 24 h: kinetic from dmso stock
Outline: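 DMSO doubling dilutions were diluted twenty-fold into 100 mM citrate (pH 4), PBS (pH 7.4) or carbonate-bicarbonate (pH 9). After 24 h equilibration at room temperature, absorbance was read at 620 nm. The reported value is the highest concentration without measurable precipitate.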

[2] = system: Staphylococcus aureus (Isolate ID ATCC 29213); assay: Antibacterial activity, MIC, S. aureus; format: cell-based; details: broth microdilution or agar dilution; for MIC: Staphylococcus aureus, ATCC29213, Gram positive strain
Outline: (§1)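 Compounds are serially diluted in broth or agar as CLSI specifies for aerobically growing bacteria, and the MIC is then recorded for each strain.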

[3] = system: Enterococcus faecalis (Isolate ID ATCC 29212); assay: Antibacterial activity, MIC, E. faecalis; format: cell-based; details: Gram positive strain, broth microdilution or agar dilution; for MIC: Enterococcus faecalis, ATCC29212
Outline: as §1

[4] = system: Streptococcus pyogenes (Isolate ID ATCC 51339); assay: Antibacterial activity, MIC, S. pyogenes; format: cell-based; details: broth microdilution or agar dilution; for MIC: Streptococcus pyogenes, ATCC51339, Gram positive strain
Outline: as §1

[5] = system: Haemophilus influenzae (Isolate ID ATCC 49247); assay: Antibacterial activity, MIC, H. influenzae; format: cell-based; details: Gram negative strain, broth microdilution or agar dilution; for MIC: Haemophilus influenzae, ATCC49247
Outline: as §1

[6] = pH 7.4, aqueous buffer, Solubility (pH 7.4)
[7] = pH 7.4, aqueous buffer, Solubility Range
[8] = pH 9, aqueous buffer, Max Solubility
[9] = pH 9, aqueous buffer, Solubility Range (maximum solubility)
[10] = pH 7.4, aqueous buffer, Max Solubility
[11] = pH 7.4, aqueous buffer, Solubility Range (maximum solubility)

Compound	solubility at 24 h [1, 6]	solubility at 24 h [1, 7]	solubility at 24 h [1, 8]	solubility at 24 h [1, 9]	MIC [2]	MIC [3]	MIC [4]	MIC [5]	Solubility (pH 7.4) ([1]; pH 7.4)	Max Solubility ([1]; pH 9)	Antibacterial Activity (MIC) S. aureus (ATCC 29213) ([2]; Gram positive strain)	Antibacterial Activity (MIC) E. faecalis (ATCC 29212) [3]	Antibacterial Activity (MIC) S. pyogenes (ATCC 51339) ([4]; Gram positive strain)	Antibacterial Activity (MIC) H. influenzae (ATCC 49247) [5]	solubility at 24 h [1, 10]	solubility at 24 h [1, 11]
CCCC1(C(=O)O)CCN(c2ncc(-c3cc(-c4cnccn4)c4sc(NC(=O)NCC)nc4c3)cn2)CC1 [Compound 118]	0.4 mg/mL (≈ 732 µM)	0.4 to 0.8 mg/mL (≈ 732 to 1460 µM)	≥ 0.8 mg/mL	> 0.8 mg/mL	≤ 0.25 mg/L	≤ 0.25 mg/L	≤ 0.25 mg/L	1 to 16 mg/L (≈ 1.83 to 29.3 µM)	–	–	–	–	–	–	–	–
CCCC1(C(=O)OCC)CCN(c2ncc(-c3cc(Br)c4sc(NC(=O)NCC)nc4c3)cn2)CC1 [Compound 119]	–	–	–	–	–	–	–	–	400 μg/mL	≧800 μg/mL	A (“A” activity ≦0.25 μg/mL)	A (“A” activity ≦0.25 μg/mL)	C (“C” activity >1.0 μg/mL-16 μg/mL)	D (“D” activity >16 μg/mL)	–	–
CCCC1(C(=O)O)CCN(c2ncc(-c3cc(-c4nccc(C)n4)c4sc(NC(=O)NCC)nc4c3)cn2)CC1 [Compound 120]	0.4 mg/mL (≈ 713 µM)	0.4 to 0.8 mg/mL (≈ 713 to 1430 µM)	≥ 0.8 mg/mL	> 0.8 mg/mL	≤ 0.25 mg/L	≤ 0.25 mg/L	≤ 0.25 mg/L	> 16 mg/L	–	–	–	–	–	–	–	–
CCCC1(C(=O)O)CCN(c2ncc(-c3cc(-c4cc(OC)ncn4)c4sc(NC(=O)NCC)nc4c3)cn2)CC1 [Compound 121]	0.1 mg/mL (≈ 173 µM)	0.0125 to 0.4 mg/mL (≈ 21.7 to 694 µM)	≥ 0.8 mg/mL	> 0.8 mg/mL	≤ 0.25 mg/L	≤ 0.25 mg/L	≤ 0.25 mg/L	1 to 16 mg/L (≈ 1.73 to 27.7 µM)	–	–	–	–	–	–	–	–
CCCC1(C(=O)O)CCN(c2ncc(-c3cc(-c4cc(OC)ccn4)c4sc(NC(=O)NCC)nc4c3)cn2)CC1 [Compound 122]	≥ 0.8 mg/mL	> 0.8 mg/mL	–	–	≤ 0.25 mg/L	≤ 0.25 mg/L	≤ 0.25 mg/L	1 to 16 mg/L (≈ 1.74 to 27.8 µM)	–	–	–	–	–	–	≥ 0.8 mg/mL	> 0.8 mg/mL
CCCC1(C(=O)O)CCN(c2ncc(-c3cc(-c4cc(C#N)ccn4)c4sc(NC(=O)NCC)nc4c3)cn2)CC1 [Compound 123]	≥ 0.8 mg/mL	> 0.8 mg/mL	–	–	≤ 0.25 mg/L	≤ 0.25 mg/L	≤ 0.25 mg/L	> 16 mg/L	–	–	–	–	–	–	≥ 0.8 mg/mL	> 0.8 mg/mL
CCCC1(C(=O)O)CCN(c2ncc(-c3cc(-c4ccc(C#N)cn4)c4sc(NC(=O)NCC)nc4c3)cn2)CC1 [Compound 124]	≥ 0.8 mg/mL	> 0.8 mg/mL	–	–	≤ 0.25 mg/L	≤ 0.25 mg/L	≤ 0.25 mg/L	1 to 16 mg/L (≈ 1.75 to 28 µM)	–	–	–	–	–	–	≥ 0.8 mg/mL	> 0.8 mg/mL
CCCC1(C(=O)O)CCN(c2ncc(-c3cc(-c4ncnc5[nH]ccc45)c4sc(NC(=O)NCC)nc4c3)cn2)CC1 [Compound 125]	0.05 mg/mL (≈ 85.4 µM)	0.0125 to 0.4 mg/mL (≈ 21.3 to 683 µM)	≥ 0.8 mg/mL	> 0.8 mg/mL	0.25 to 1 mg/L (≈ 0.427 to 1.71 µM)	≤ 0.25 mg/L	≤ 0.25 mg/L	> 16 mg/L	–	–	–	–	–	–	–	–
CCCC1(C(=O)O)CCN(c2ncc(-c3cc(-c4ncccc4C#N)c4sc(NC(=O)NCC)nc4c3)cn2)CC1 [Compound 126]	0.1 mg/mL (≈ 175 µM)	0.0125 to 0.4 mg/mL (≈ 21.9 to 701 µM)	≥ 0.8 mg/mL	> 0.8 mg/mL	≤ 0.25 mg/L	≤ 0.25 mg/L	≤ 0.25 mg/L	1 to 16 mg/L (≈ 1.75 to 28 µM)	–	–	–	–	–	–	–	–
CCCC1(C(=O)O)CCN(c2ncc(-c3cc(-c4nccc(OC)n4)c4sc(NC(=O)NCC)nc4c3)cn2)CC1 [Compound 127]	0.0125 mg/mL (≈ 21.7 µM)	0.0125 to 0.4 mg/mL (≈ 21.7 to 694 µM)	0.025 mg/mL (≈ 43.4 µM)	0.0125 to 0.4 mg/mL (≈ 21.7 to 694 µM)	≤ 0.25 mg/L	≤ 0.25 mg/L	≤ 0.25 mg/L	> 16 mg/L	–	–	–	–	–	–	–	–
CCNC(=O)Nc1nc2cc(-c3cnc(N4CCC(N)(C(=O)O)CC4)nc3)cc(-c3ccccn3)c2s1 [Compound 128, 4-amino-1-[5-[2-(ethylcarbamoylamino)-7-(2-pyridyl)-1,3-benzothiazol-5-yl]pyrimidin-2-yl]piperidine-4-carboxylic acid]	0.025 mg/mL (≈ 48.2 µM)	0.0125 to 0.4 mg/mL (≈ 24.1 to 771 µM)	–	–	> 16 mg/L	> 16 mg/L	1 to 16 mg/L (≈ 1.93 to 30.9 µM)	> 16 mg/L	–	–	–	–	–	–	–	–
CCNC(=O)Nc1nc2cc(-c3cnc(N4CCC(C(=O)O)(c5ccccc5)CC4)nc3)cc(-c3ccccn3)c2s1 [Compound 129]	0.0125 mg/mL (≈ 21.6 µM)	0.0125 to 0.4 mg/mL (≈ 21.6 to 690 µM)	–	–	0.25 to 1 mg/L (≈ 0.431 to 1.73 µM)	≤ 0.25 mg/L	0.25 to 1 mg/L (≈ 0.431 to 1.73 µM)	> 16 mg/L	–	–	–	–	–	–	–	–
CCNC(=O)Nc1nc2cc(-c3cnc(N4CCC(C#N)(C(=O)O)CC4)nc3)cc(-c3ccccn3)c2s1 [Compound 130]	0.2 mg/mL (≈ 378 µM)	0.0125 to 0.4 mg/mL (≈ 23.6 to 757 µM)	–	–	> 16 mg/L	1 to 16 mg/L (≈ 1.89 to 30.3 µM)	1 to 16 mg/L (≈ 1.89 to 30.3 µM)	> 16 mg/L	–	–	–	–	–	–	–	–
CCNC(=O)Nc1nc2cc(-c3cnc(N4CCC(O)(C(=O)O)CC4)nc3)cc(-c3ccccn3)c2s1 [Compound 131]	0.1 mg/mL (≈ 192 µM)	0.0125 to 0.4 mg/mL (≈ 24.1 to 770 µM)	–	–	1 to 16 mg/L (≈ 1.92 to 30.8 µM)	0.25 to 1 mg/L (≈ 0.481 to 1.92 µM)	≤ 0.25 mg/L	1 to 16 mg/L (≈ 1.92 to 30.8 µM)	–	–	–	–	–	–	–	–
CCNC(=O)Nc1nc2cc(-c3cnc(N4CCC(OC)(C(=O)O)CC4)nc3)cc(-c3ccccn3)c2s1 [Compound 132]	0.4 mg/mL (≈ 750 µM)	0.4 to 0.8 mg/mL (≈ 750 to 1500 µM)	–	–	0.25 to 1 mg/L (≈ 0.469 to 1.87 µM)	≤ 0.25 mg/L	≤ 0.25 mg/L	1 to 16 mg/L (≈ 1.87 to 30 µM)	–	–	–	–	–	–	–	–
CCNC(=O)Nc1nc2cc(-c3cnc(N4CCC(C(=O)O)(S(C)(=O)=O)CC4)nc3)cc(-c3ccccn3)c2s1 [Compound 133]	≥ 0.8 mg/mL	> 0.8 mg/mL	–	–	> 16 mg/L	1 to 16 mg/L (≈ 1.72 to 27.5 µM)	1 to 16 mg/L (≈ 1.72 to 27.5 µM)	> 16 mg/L	–	–	–	–	–	–	–	–
CCNC(=O)Nc1nc2cc(-c3cnc(N4CCC(Cc5ccccc5)(C(=O)O)CC4)nc3)cc(-c3ccccn3)c2s1 [Compound 134]	0.1 mg/mL (≈ 168 µM)	0.0125 to 0.4 mg/mL (≈ 21.1 to 674 µM)	–	–	≤ 0.25 mg/L	≤ 0.25 mg/L	0.25 to 1 mg/L (≈ 0.421 to 1.68 µM)	> 16 mg/L	–	–	–	–	–	–	–	–
CCNC(=O)Nc1nc2cc(-c3cnc(N4CCC(F)(C(=O)O)CC4)nc3)cc(-c3ccccn3)c2s1 [Compound 135]	0.4 mg/mL (≈ 767 µM)	0.4 to 0.8 mg/mL (≈ 767 to 1530 µM)	–	–	1 to 16 mg/L (≈ 1.92 to 30.7 µM)	≤ 0.25 mg/L	≤ 0.25 mg/L	1 to 16 mg/L (≈ 1.92 to 30.7 µM)	–	–	–	–	–	–	–	–
CCNC(=O)Nc1nc2cc(-c3cnc(N4CCC(C(=O)O)(C(C)C)CC4)nc3)cc(-c3ccccn3)c2s1 [Compound 137]	0.4 mg/mL (≈ 733 µM)	0.4 to 0.8 mg/mL (≈ 733 to 1470 µM)	–	–	≤ 0.25 mg/L	≤ 0.25 mg/L	≤ 0.25 mg/L	1 to 16 mg/L (≈ 1.83 to 29.3 µM)	–	–	–	–	–	–	–	–
CCNC(=O)Nc1nc2cc(-c3cnc(N4CCC(SC)(C(=O)O)CC4)nc3)cc(-c3ccccn3)c2s1 [Compound 138]	≥ 0.8 mg/mL	> 0.8 mg/mL	–	–	≤ 0.25 mg/L	≤ 0.25 mg/L	≤ 0.25 mg/L	1 to 16 mg/L (≈ 1.82 to 29.1 µM)	–	–	–	–	–	–	–	–
C=CCC1(C(=O)O)CCN(c2ncc(-c3cc(-c4cnccn4)c4sc(NC(=O)NCC)nc4c3)cn2)CC1 [Compound 139, 4-allyl-1-[5-[2-(ethylcarbamoylamino)-7-pyrazin-2-yl-1,3-benzothiazol-5-yl]pyrimidin-2-yl]piperidine-4-carboxylic acid]	≥ 0.8 mg/mL	> 0.8 mg/mL	–	–	≤ 0.25 mg/L	≤ 0.25 mg/L	≤ 0.25 mg/L	1 to 16 mg/L (≈ 1.84 to 29.4 µM)	–	–	–	–	–	–	–	–
